Earlier results as cited in article PMC3201700 (Journal of agricultural and food chemistry, 2011).
Read-outs that look alike come from different tables or passages of the source.

Legend:
MRP1 and MRP2 = settings: SFN compared with ERN
[1] = rats

| SMILES | Induction of MRP1 and MRP2 (phase III detoxification) (MRP1 and MRP2) | Recovery of the dose in the urine after 24 h ([1]; by gavage) [%] | Recovery of the dose in the urine after 24 h ([1]; in the diet) [%] |
| --- | --- | --- | --- |
| C[S+]([O-])CCCCN=C=S (stereo not drawn) [SFN, sulforaphane] | substantially more potent than ERN |  |  |
| C[S+]([O-])CCCC/C(=N\OS(=O)(=O)O)S[C@@H]1O[C@H](CO)[C@@H](O)[C@H](O)[C@H]1O (stereo partly drawn) [glucoraphanin] |  | 27.6 | 23.8 |
